Several values for one entry are separate records, joined by “and”; a condition that tells them apart may be missing. Identical values can stand only once. Like-named read-outs stand apart in the source and are kept apart here.
Experiments:
AR2 cells (HepG2-AR2) [1] = test system: AR2 cells (HepG2-AR2)
Experimental: (§1) For antagonist mode and cytotoxicity data, well-level normalized response (resp) was calculated as: resp=100 * RLU−bval/pval−bval where pval is the median RLU value of the MEC positive control wells (minimum four wells).

[2] = test system: full-length human AR and the receptor interacting domain (RID) of SRC1; design: method as in U.S. EPA, 2002b; conditions: cited from earlier work
AR2 cells (HepG2-AR2) [3] = test: Alamar Blue (resazurin) post hoc cell viability / cytotoxicity assay in AR2 cells
Experimental: as §1

AR = test system: AR; design: method as in Kleinstreuer et al., 2017; conditions: cited from earlier work
[4] = test system: human AR (LBD and AF2 domains) and the RID of human SRC2; design: method as in U.S. EPA, 2002b; conditions: activity call, agonist mode, 2 h; invitroDBv3.4 ref U.S. EPA, 2002b; cited from earlier work
human AR [5] = biological target: T1, human AR (Homo sapiens, UniProt P10275); test: AR2 assay, agonist mode: ligand-dependent AR homodimerization (NanoBiT luciferase complementation) in stable HepG2-AR2 cells; assay type: cell-based; conditions: for hill_gw / hill_tp / max_med / win_model: sheet agonist_fits; for hill_gw: Hill model gain slope (Hill coefficient); for hill_gw / hill_tp: 0 given where win_model is Constant; for hill_tp: Hill model top (efficacy); for max_med: maximum median response; for win_model: winning concentration-response model (Constant, Hill, Gain-Loss); for AR2 agonist: activity call, agonist mode;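 on hill tp: Log2 fold change of luminescence over DMSO vehicle wells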;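 on max med: Log2 fold change of luminescence over DMSO vehicle wells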
T1 sequence (P10275 1-920) 1: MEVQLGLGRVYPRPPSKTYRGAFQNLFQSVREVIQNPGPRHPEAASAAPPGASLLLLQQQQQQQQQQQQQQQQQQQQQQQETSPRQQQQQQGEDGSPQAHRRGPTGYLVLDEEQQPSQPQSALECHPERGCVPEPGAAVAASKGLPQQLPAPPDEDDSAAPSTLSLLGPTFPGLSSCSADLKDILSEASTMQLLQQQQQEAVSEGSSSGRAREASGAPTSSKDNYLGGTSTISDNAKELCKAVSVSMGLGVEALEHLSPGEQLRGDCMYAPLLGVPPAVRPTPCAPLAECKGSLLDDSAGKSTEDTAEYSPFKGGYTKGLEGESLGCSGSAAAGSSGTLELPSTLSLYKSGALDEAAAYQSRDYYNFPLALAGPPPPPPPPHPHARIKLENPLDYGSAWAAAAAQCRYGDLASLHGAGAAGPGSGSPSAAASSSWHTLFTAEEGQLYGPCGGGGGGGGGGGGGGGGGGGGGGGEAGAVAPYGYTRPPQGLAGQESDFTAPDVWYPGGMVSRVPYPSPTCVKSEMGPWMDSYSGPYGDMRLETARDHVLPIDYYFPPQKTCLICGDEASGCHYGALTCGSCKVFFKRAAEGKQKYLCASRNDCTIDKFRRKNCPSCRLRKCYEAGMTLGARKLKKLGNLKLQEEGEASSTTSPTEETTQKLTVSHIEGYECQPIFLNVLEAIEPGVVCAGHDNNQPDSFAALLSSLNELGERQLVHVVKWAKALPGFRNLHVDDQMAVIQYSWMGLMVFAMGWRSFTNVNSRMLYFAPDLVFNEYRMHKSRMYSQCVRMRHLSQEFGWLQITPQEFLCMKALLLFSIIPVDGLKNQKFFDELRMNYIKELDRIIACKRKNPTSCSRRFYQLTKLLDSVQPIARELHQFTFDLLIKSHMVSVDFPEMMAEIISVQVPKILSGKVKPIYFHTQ
T1 sequence (P10275 1-920) 2: T1 sequence (P10275 1-920) 1

human AR [6] = biological target: T1, human AR; test: AR2 assay, antagonist mode: disruption of R1881 (10 nM)-induced AR homodimerization in HepG2-AR2 cells; assay type: cell-based
human AR [7] = biological target: T1, human AR; test: cell-based; design: species or system AR2 cells (HepG2-AR2); NanoLuc complementation AR homodimerization, antagonist mode, loss of agonist-induced luminescence, AC50 by Hill fit
human AR [8] = biological target: T1, human AR; test: cell-based; design: species or system AR2 cells (HepG2-AR2); NanoLuc complementation AR homodimerization, agonist mode, luminescence gain, AC50 by Hill fit
[9] = spid AR_antagonist, sheet antagonist_fits
[10] = spid AR_antagonist, sheet antagonist_fits, 0 where win_model is Constant
[11] = hill_ga, spid=Bgal, antagonist mode, 10 nM agonist stimulus, 18 h, no CYP expressed
[12] = hill_ga, spid=No_RNA, antagonist mode, 10 nM agonist stimulus, 18 h, no CYP expressed
[13] = spid Viability, sheet antagonist_fits
[14] = spid Viability, sheet antagonist_fits, 0 where win_model is Constant
[15] = hill_ga, spid=Bgal, agonist mode, 18 h, no CYP expressed
[16] = hill_ga, spid=No_RNA, agonist mode, 18 h, no CYP expressed
[17] = activity call, 8 h, single protocol detects agonists and antagonists, invitroDBv3.4 ref U.S. EPA, 2002b
[18] = activity call, 16 h, single protocol detects agonists and antagonists, invitroDBv3.4 ref U.S. EPA, 2002b
[19] = AR agonist reference class ref Kleinstreuer et al., 2017
[20] = spid=Bgal, antagonist mode, 10 nM agonist stimulus, 18 h, no CYP expressed, read-out: hill_ga (converted)

C[C@]12CCC(=O)C[C@@H]1CC[C@@H]1[C@@H]2CC[C@]2(C)[C@@H](O)CC[C@@H]12 [5alpha-Dihydrotestosterone]
hill_ga (Hill model log AC50) (AR2 cells (HepG2-AR2) [1]): 1.263
OT 8 hr [2]: 1
OT 16 hr [2]: 1
hill_tp (Hill model top) (AR2 cells (HepG2-AR2) [3]): 25.0955
max_med (maximum median response) (AR2 cells (HepG2-AR2) [3]): 25.6282
Agonist reference (AR): Moderate
UPitt agonist [4]: 0

O=C(c1ccc(O)cc1O)c1ccc(O)cc1O [2,2',4,4'-Tetrahydroxybenzophenone]
hill_gw (human AR [5]): 3.418
hill_tp (human AR [5]): 2.275
max_med (human AR [5]): 2.26
win_model (human AR [5]): Gain-Loss
max_med (maximum median response) (human AR [6]; [9]): 92.9832
win_model (winning concentration-response model) (human AR [6]; [9]): Hill
hill_gw (Hill model slope) (human AR [6]; [10]): 1.5932
hill_tp (Hill model top) (human AR [6]; [10]): 93.4271
AC50 (human AR [7]; [11]): 9.95 µM
AC50 (human AR [7]; [12]): 10.6 µM
max_med (maximum median response) (AR2 cells (HepG2-AR2) [3]; [13]): 18.7262
hill_tp (Hill model top) (AR2 cells (HepG2-AR2) [3]; [14]): 17.7235
AC50 (human AR [8]; [15]): 9.83 µM
AC50 (human AR [8]; [16]): 9.94 µM

C[C@]12CC[C@@H]3c4ccc(O)cc4C[C@@H](CCCCCCCCC[S+]([O-])CCCC(F)(F)C(F)(F)F)[C@H]3[C@@H]1CC[C@@H]2O (stereo partly drawn) [Fulvestrant]
AR2 agonist (human AR [5]; 18 h): 0
hill_tp (human AR [5]): 0
max_med (human AR [5]): 0.04086
win_model (human AR [5]): Constant
max_med (maximum median response) (human AR [6]; [9]): 30.2853
win_model (winning concentration-response model) (human AR [6]; [9]): Hill
hill_gw (Hill model slope) (human AR [6]; [10]): 0.7802
hill_tp (Hill model top) (human AR [6]; [10]): 36.6036
OT 8 hr [2, 17]: 0
OT 16 hr [2, 18]: 0
max_med (maximum median response) (AR2 cells (HepG2-AR2) [3]; [13]): 0.2489
hill_tp (Hill model top) (AR2 cells (HepG2-AR2) [3]; [14]): 0
Agonist reference (AR; [19]): Inactive
UPitt agonist [4]: 0

N#Cc1ccc(C(c2ccc(C#N)cc2)n2cncn2)cc1 [Letrozole]
hill_gw (human AR [5]): 3.273
hill_tp (human AR [5]): 5.82
max_med (human AR [5]): 6.074
win_model (human AR [5]): Gain-Loss
max_med (maximum median response) (human AR [6]; [9]): 39.7548
win_model (winning concentration-response model) (human AR [6]; [9]): Hill
hill_gw (Hill model slope) (human AR [6]; [10]): 1.809
hill_tp (Hill model top) (human AR [6]; [10]): 49.9358
AC50 (human AR [7]; [12]): 54.9 µM
max_med (maximum median response) (AR2 cells (HepG2-AR2) [3]; [13]): 11.0349
hill_tp (Hill model top) (AR2 cells (HepG2-AR2) [3]; [14]): 0
AC50 (human AR [8]; [15]): > 99.9 µM

C[C@]12CC[C@@H]3c4ccc(O)cc4CC[C@H]3[C@@H]1CC[C@H]2O [17alpha-Estradiol]
OT 8 hr [2]: 1
OT 16 hr [2]: 1
max_med (maximum median response) (AR2 cells (HepG2-AR2) [3]; [13]): 9.057
hill_tp (Hill model top) (AR2 cells (HepG2-AR2) [3]; [14]): 0
Agonist reference (AR; [19]): Inactive
UPitt agonist [4]: 1

C[C@]12CC[C@@H]3c4ccc(O)cc4CC[C@H]3[C@@H]1CCC2=O [Estrone]
hill_gw (human AR [5]): 0.4978
hill_tp (human AR [5]): 4.258
max_med (human AR [5]): 3.757
win_model (human AR [5]): Hill
max_med (maximum median response) (human AR [6]; [9]): 84.5958
win_model (winning concentration-response model) (human AR [6]; [9]): Hill
hill_gw (Hill model slope) (human AR [6]; [10]): 1.278
hill_tp (Hill model top) (human AR [6]; [10]): 83.5344
AC50 (human AR [7]; [20]): 0.556 µM
AC50 (human AR [7]; spid=No_RNA, antagonist mode, 10 nM agonist stimulus, 18 h, no CYP expressed, read-out: hill_ga (converted)): 0.707 µM
max_med (maximum median response) (AR2 cells (HepG2-AR2) [3]; [13]): 20.7469
hill_tp (Hill model top) (AR2 cells (HepG2-AR2) [3]; [14]): 20.0823
AC50 (human AR [8]; spid=Bgal, agonist mode, 18 h, no CYP expressed, read-out: hill_ga (converted)): 4.32 µM
AC50 (human AR [8]; spid=No_RNA, agonist mode, 18 h, no CYP expressed, read-out: hill_ga (converted)): 2.63 µM

CCCCOC(=O)c1ccc(O)cc1 [Butylparaben]
hill_gw (human AR [5]): 8
hill_tp (human AR [5]): 0.09975
max_med (human AR [5]): 0.1079
win_model (human AR [5]): Gain-Loss
max_med (maximum median response) (human AR [6]; [9]): 51.2671
win_model (winning concentration-response model) (human AR [6]; [9]): Hill
hill_gw (Hill model slope) (human AR [6]; [10]): 8
hill_tp (Hill model top) (human AR [6]; [10]): 52.9514
AC50 (human AR [7]; [11]): 73.1 µM
AC50 (human AR [7]; [12]): 67.8 µM
max_med (maximum median response) (AR2 cells (HepG2-AR2) [3]; [13]): 19.2784
hill_tp (Hill model top) (AR2 cells (HepG2-AR2) [3]; [14]): 11.4715
AC50 (human AR [8]; [15]): 10.4 µM
AC50 (human AR [8]; [16]): 15.3 µM

O=C1C[C@@H](c2ccc(O)cc2)Oc2cc(O)cc(O)c21 [Naringenin]
hill_gw (human AR [5]): 8
hill_tp (human AR [5]): 0.1206
max_med (human AR [5]): 0.1409
win_model (human AR [5]): Gain-Loss
hill_tp (Hill model top) (human AR [6]): 38.8754
max_med (maximum median response) (human AR [6]): 37.0321
win_model (winning concentration-response model) (human AR [6]; [9]): Hill
hill_gw (Hill model slope) (human AR [6]; [10]): 8
AC50 (human AR [7]; [11]): 49.8 µM
AC50 (human AR [7]; [12]): 57.7 µM
max_med (maximum median response) (AR2 cells (HepG2-AR2) [3]; [13]): 0.3009
hill_tp (Hill model top) (AR2 cells (HepG2-AR2) [3]; [14]): 0
AC50 (human AR [8]; [15]): > 99.9 µM

CCOP(=S)(OCC)Oc1nc(Cl)c(Cl)cc1Cl [Chlorpyrifos]
max_med (human AR [5]): -0.04623
max_med (maximum median response) (human AR [6]; [9]): 43.366
win_model (winning concentration-response model) (human AR [6]; [9]): Hill
hill_gw (Hill model slope) (human AR [6]; [10]): 1.601
hill_tp (Hill model top) (human AR [6]; [10]): 66.6083
AC50 (human AR [7]; hill_ga): 32.9 µM and 58.7 µM
max_med (maximum median response) (AR2 cells (HepG2-AR2) [3]; [13]): 11.582
hill_tp (Hill model top) (AR2 cells (HepG2-AR2) [3]; [14]): 0
AC50 (human AR [8]; hill_ga): > 99.9 µM

CC(C)=CC1C(C(=O)OCN2C(=O)C3=C(CCCC3)C2=O)C1(C)C (stereo not drawn) [Tetramethrin]
activity call in agonist mode (human AR [5]; 128-chemical evaluation, 18 h, active = maximal median response >5*bmad): inactive
AR2 agonist (human AR [5]; 18 h): 0
hill_gw (human AR [5]): 4.525
hill_tp (human AR [5]): 0.4941
max_med (human AR [5]): 0.4102
win_model (human AR [5]): Hill
max_med (maximum median response) (human AR [6]; [9]): 7.623
win_model (winning concentration-response model) (human AR [6]; [9]): Hill
hill_gw (Hill model slope) (human AR [6]; [10]): 3.974
hill_tp (Hill model top) (human AR [6]; [10]): 4.695
OT 8 hr [2, 17]: 1
OT 16 hr [2, 18]: 1
AC50 (human AR [7]; [20]): 43.1 µM
max_med (maximum median response) (AR2 cells (HepG2-AR2) [3]; [13]): 11.4832
hill_tp (Hill model top) (AR2 cells (HepG2-AR2) [3]; [14]): 20.7059
Agonist reference (AR; [19]): Inactive
UPitt agonist [4]: 0

Source: article PMC10112521, “High-throughput AR dimerization assay identifies androgen disrupting chemicals and metabolites” (Frontiers in Toxicology, 2023)
